In patent US12391737B2, “Soluble NPY2 receptor agonists” (Boehringer Ingelheim International GmbH, priority 2020, dated 2025):

Legend:
[1] = biological target: T1, Human Neuropeptide Y2 Receptor (Homo sapiens, UniProt P49146); assay: Radioligand binding competition assay (RLB); settings: Table 3, 125I-PYY(1-36) competition; read-out: Ki
T1 construct: purchased CHEMICON HTS066M
T1 sequence (P49146 1-381): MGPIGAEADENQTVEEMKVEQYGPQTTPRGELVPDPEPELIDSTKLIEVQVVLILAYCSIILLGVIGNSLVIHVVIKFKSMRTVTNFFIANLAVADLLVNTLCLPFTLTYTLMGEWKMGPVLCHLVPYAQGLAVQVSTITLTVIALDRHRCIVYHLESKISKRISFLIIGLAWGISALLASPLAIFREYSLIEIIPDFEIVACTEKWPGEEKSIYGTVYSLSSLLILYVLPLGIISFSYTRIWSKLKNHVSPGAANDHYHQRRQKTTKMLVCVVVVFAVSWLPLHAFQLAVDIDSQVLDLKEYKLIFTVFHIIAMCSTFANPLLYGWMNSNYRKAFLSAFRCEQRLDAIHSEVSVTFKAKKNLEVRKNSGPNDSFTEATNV
Outline: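 IC50 values come from sigmoidal dose-response fits of scintillation counts after peptides competed for radioligand binding at receptor membranes (0.5 μg protein/well). Incubation ran 2 h at room temperature in HEPES buffer, pH 7.4, with Mg2+, Ca2+ and 0.2% ovalbumin.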

Solubility determination = settings: for Sol6: pH 6; for Sol7: pH 7
Outline: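 First, TFA-salt peptide was added to 0.1 M sodium diphosphate (pH 6.4 or 7.0) to 10 mg/ml and shaken 2 h at room temperature. Next, insoluble material was filtered off. Finally, filtrate and control, each 1 mg/ml in 50% acetonitrile, were compared by reversed-phase chromatography.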

[2] = biological target: T2, human NPY5 receptor (hY5R) (Homo sapiens, UniProt Q15761); assay: HTRF cAMP Gi assay, hY5R
T2 sequence (Q15761 1-445): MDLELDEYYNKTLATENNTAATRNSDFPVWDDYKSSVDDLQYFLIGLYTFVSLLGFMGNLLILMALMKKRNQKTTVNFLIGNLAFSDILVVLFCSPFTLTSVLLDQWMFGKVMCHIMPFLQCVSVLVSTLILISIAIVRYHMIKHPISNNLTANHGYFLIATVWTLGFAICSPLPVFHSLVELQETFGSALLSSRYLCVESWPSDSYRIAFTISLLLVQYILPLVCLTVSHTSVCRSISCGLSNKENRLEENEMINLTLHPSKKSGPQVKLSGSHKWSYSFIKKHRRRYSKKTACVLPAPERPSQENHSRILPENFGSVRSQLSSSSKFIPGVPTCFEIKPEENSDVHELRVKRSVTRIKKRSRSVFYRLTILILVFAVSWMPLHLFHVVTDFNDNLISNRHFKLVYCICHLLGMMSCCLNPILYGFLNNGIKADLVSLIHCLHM

Ki [1] [nM] | Sol6 (Solubility determination) [mg/mL] | Sol7 (Solubility determination) [mg/mL] | EC50 [2] [nM] | Compound
1.54 | 10.0 | 10.0 | > 5000 | CC(C)CC(=O)N[C@@H](C)C(=O)N1CCC[C@H]1C(=O)N[C@@H](CCC(=O)O)C(=O)N[C@@H](CCCCNC(=O)CCCCCNC(=O)CC[C@H](NC(=O)CCCCCCCCCCCCCCCCC(=O)O)C(=O)O)C(=O)N1CCC[C@H]1C(=O)N[C@@H](CCC(=O)O)C(=O)N[C@@H](CCC(=O)O)C(=O)N[C@@H](CC(=O)O)C(=O)N[C@@H](C)C(=O)N[C@@H](CO)C(=O)N1CCC[C@H]1C(=O)N[C@@H](CCC(=O)O)C(=O)N[C@@H](CCC(=O)O)C(=O)N[C@@H](CC(C)C)C(=O)N[C@@H](CCC(N)=O)C(=O)N[C@@H](CCCNC(=N)N)C(=O)N[C@@H](Cc1ccc(O)cc1)C(=O)N[C@@H](Cc1ccc(O)cc1)C(=O)N[C@H](C(=O)N[C@@H](CO)C(=O)N[C@@H](CC(C)C)C(=O)N[C@@H](CCCNC(=N)N)C(=O)N[C@@H](Cc1c[nH]cn1)C(=O)N[C@@H](Cc1ccc(O)cc1)C(=O)N[C@@H](Cc1ccc(O)cc1)C(=O)N[C@@H](CC(N)=O)C(=O)N[C@@H](Cc1c[nH]c2ccccc12)C(=O)N[C@@H](CC(C)C)C(=O)N[C@H](C(=O)N[C@@H](CCCNC(=N)N)C(=O)N[C@@H](CCC(N)=O)C(=O)N[C@@H](CCCNC(=N)N)C(=O)N[C@@H](Cc1ccc(O)cc1)C(N)=O)[C@@H](C)O)C(C)C [Compound 79, N{alpha-4}-(3-methylbutanoyl)-N{epsilon-7}-(6-[(4S)-4-carboxy-4-(17-carboxyheptadecanamido)butanamido]hexanoyl)-[4A,7K,9E,18Q,22V,28Y,30W,31L]-hPYY(4-36)]
12.6 | 9.8 | 10.0 | > 5000 | CC(C)CC(=O)N[C@@H](C)C(=O)N1CCC[C@H]1C(=O)N[C@@H](CCC(=O)O)C(=O)N[C@@H](CCCCNC(=O)CCCCCNC(=O)CC[C@H](NC(=O)CCCCCCCCCCCCCCCCC(=O)O)C(=O)O)C(=O)N1CCC[C@H]1C(=O)N[C@@H](CCC(=O)O)C(=O)N[C@@H](CCC(=O)O)C(=O)N[C@@H](CCC(=O)O)C(=O)N[C@@H](C)C(=O)N[C@@H](CO)C(=O)N1CCC[C@H]1C(=O)N[C@@H](CCC(=O)O)C(=O)N[C@@H](CCC(=O)O)C(=O)N[C@@H](CC(C)C)C(=O)N[C@@H](CCC(N)=O)C(=O)N[C@@H](CCCNC(=N)N)C(=O)N[C@@H](Cc1ccc(O)cc1)C(=O)N[C@@H](Cc1ccc(O)cc1)C(=O)N[C@H](C(=O)N[C@@H](CO)C(=O)N[C@@H](CC(C)C)C(=O)N[C@@H](CCCNC(=N)N)C(=O)N[C@@H](Cc1c[nH]cn1)C(=O)N[C@@H](Cc1ccc(O)cc1)C(=O)N[C@@H](Cc1ccc(O)cc1)C(=O)N[C@@H](CC(N)=O)C(=O)N[C@@H](Cc1c[nH]c2ccccc12)C(=O)N[C@@H](CC(C)C)C(=O)N[C@H](C(=O)N[C@@H](CCCNC(=N)N)C(=O)N[C@@H](CCC(N)=O)C(=O)N[C@@H](CCCNC(=N)N)C(=O)N[C@@H](Cc1ccc(O)cc1)C(N)=O)[C@@H](C)O)C(C)C [Compound 23, N{alpha-4}-(3-methylbutanoyl)-N{epsilon-7}-(6-[(4S)-4-carboxy-4-(17-carboxyheptadecanamido)butanamido]hexanoyl)[4A,7K,9E,11E,18Q,22V,28Y,30W,31L]-hPYY(4-36)]
